The text below walks through data of ChEMBL document CHEMBL1130677, “Growth inhibitory effect of juvenile hormone analogues on epimastigotes of Trypanosoma cruzi” (Bioorg Med Chem Lett, 1998).

≈ marks a conversion by molar mass, not a printed value.

The assay deals with Trypanosoma cruzi. Briefly: Growth inhibitory activity against Trypanosoma cruzi (Epimastigote). In kind it is functional, organism-based.
Molecule `CC(C)OC(=O)NCCOc1ccc(C[C@@H]2CCCCC23OCCO3)cc1` returned an IC50 of 145 µg/mL (≈ 384 µM).

Consider `COC(=O)NCCOc1ccc(C[C@@H]2CCCC[C@H]2O)cc1`, for which the IC50 is above 200 µg/mL.

`CC(C)OC(=O)NCCOc1ccc(C[C@@H]2CCCC[C@H]2O)cc1` yielded an IC50 of 194 µg/mL (≈ 578 µM).

`CCCOC(=O)NCCOc1ccc(C[C@@H]2CCCCC23OCCO3)cc1`: the IC50 is above 200 µg/mL.

Take `CCOC(=O)NCCOc1ccc(C[C@@H]2CCCC[C@H]2O)cc1`: the IC50 was determined as 62.3 µg/mL (≈ 194 µM).

For `C#CCOC(=O)NCCOc1ccc(C[C@@H]2CCCC[C@H]2O)cc1`, the IC50 is above 100 µg/mL.

Molecule `CCCOC(=O)NCCOc1ccc(C[C@@H]2CCCC[C@H]2O)cc1` registered an IC50 of 37.3 µg/mL (≈ 111 µM).

Regarding `CCCOC(=O)NCCOc1ccc(C[C@@H]2CCCC[C@@H]2O)cc1`, the IC50 was found to be 45.7 µg/mL (≈ 136 µM).

`CC(=O)N1CCN(c2ccc(OC[C@H]3CO[C@](Cn4ccnc4)(c4ccc(Cl)cc4Cl)O3)cc2)CC1` [KETOCONAZOLE] registered an IC50 of 1.7 µg/mL (≈ 3.2 µM).

One may read the IC50 as the concentration that inhibits the measured activity by half. Read a low IC50 as greater potency in that assay.
